Source: ChEMBL document CHEMBL4680207, “The discovery, design and synthesis of potent agonists of adenylyl cyclase type 2 by virtual screening combining biological evaluation” (Eur J Med Chem, 2020)

Legend:
Format in all cases: cell-based
Adenylate cyclase type 2 [1] = biological target: T1, Adenylate cyclase type 2 (Homo sapiens, UniProt Q08462); assay: Agonist activity at recombinant human AC2 expressed in HEK293 cells assessed as increase in cAMP level measured after 30 mins by LANCE Ultra cAMP Detection kit method
Adenylate cyclase type 1 = Adenylate cyclase type 1 (Homo sapiens, UniProt Q08828); assay: Agonist activity at recombinant human AC1 expressed in HEK293 cells assessed as increase in cAMP level at 50 uM measured after 30 mins by LANCE Ultra cAMP Detection kit method; settings: hek293, 0.5 h
Adenylate cyclase type 5 = Adenylate cyclase type 5 (Homo sapiens, UniProt O95622); assay: Agonist activity at recombinant human AC5 expressed in HEK293 cells assessed as increase in cAMP level at 50 uM measured after 30 mins by LANCE Ultra cAMP Detection kit method; settings: hek293, 0.5 h
Adenylate cyclase type 8 = Adenylate cyclase type 8 (Homo sapiens, UniProt P40145); assay: Agonist activity at recombinant human AC8 expressed in HEK293 cells assessed as increase in cAMP level at 50 uM measured after 30 mins by LANCE Ultra cAMP Detection kit method; settings: hek293, 0.5 h
Adenylate cyclase type 2 [2] = biological target: T1, Adenylate cyclase type 2; assay: Agonist activity at recombinant human AC2 expressed in HEK293 cells assessed as increase in cAMP level by measuring cAMP level at 50 uM measured after 30 mins by LANCE Ultra cAMP Detection kit method relative to control; settings: filed as agonist
Adenylate cyclase type 2 [3] = biological target: T1, Adenylate cyclase type 2; assay: Potency index, ratio of forskolin EC50 to test compound EC50 for agonist activity at recombinant human AC2 expressed in HEK293 cells assessed as increase in cAMP level
Adenylate cyclase type 2 [4] = biological target: T1, Adenylate cyclase type 2; assay: Agonist activity at recombinant human AC2 expressed in HEK293 cells assessed as reduction in IL6 level by measuring IL6 level at 50 uM measured after 24 hrs by ELISA relative to control; design: scale not given: the % may be the effect or the level left

T1 sequence (Q08462 whole entry): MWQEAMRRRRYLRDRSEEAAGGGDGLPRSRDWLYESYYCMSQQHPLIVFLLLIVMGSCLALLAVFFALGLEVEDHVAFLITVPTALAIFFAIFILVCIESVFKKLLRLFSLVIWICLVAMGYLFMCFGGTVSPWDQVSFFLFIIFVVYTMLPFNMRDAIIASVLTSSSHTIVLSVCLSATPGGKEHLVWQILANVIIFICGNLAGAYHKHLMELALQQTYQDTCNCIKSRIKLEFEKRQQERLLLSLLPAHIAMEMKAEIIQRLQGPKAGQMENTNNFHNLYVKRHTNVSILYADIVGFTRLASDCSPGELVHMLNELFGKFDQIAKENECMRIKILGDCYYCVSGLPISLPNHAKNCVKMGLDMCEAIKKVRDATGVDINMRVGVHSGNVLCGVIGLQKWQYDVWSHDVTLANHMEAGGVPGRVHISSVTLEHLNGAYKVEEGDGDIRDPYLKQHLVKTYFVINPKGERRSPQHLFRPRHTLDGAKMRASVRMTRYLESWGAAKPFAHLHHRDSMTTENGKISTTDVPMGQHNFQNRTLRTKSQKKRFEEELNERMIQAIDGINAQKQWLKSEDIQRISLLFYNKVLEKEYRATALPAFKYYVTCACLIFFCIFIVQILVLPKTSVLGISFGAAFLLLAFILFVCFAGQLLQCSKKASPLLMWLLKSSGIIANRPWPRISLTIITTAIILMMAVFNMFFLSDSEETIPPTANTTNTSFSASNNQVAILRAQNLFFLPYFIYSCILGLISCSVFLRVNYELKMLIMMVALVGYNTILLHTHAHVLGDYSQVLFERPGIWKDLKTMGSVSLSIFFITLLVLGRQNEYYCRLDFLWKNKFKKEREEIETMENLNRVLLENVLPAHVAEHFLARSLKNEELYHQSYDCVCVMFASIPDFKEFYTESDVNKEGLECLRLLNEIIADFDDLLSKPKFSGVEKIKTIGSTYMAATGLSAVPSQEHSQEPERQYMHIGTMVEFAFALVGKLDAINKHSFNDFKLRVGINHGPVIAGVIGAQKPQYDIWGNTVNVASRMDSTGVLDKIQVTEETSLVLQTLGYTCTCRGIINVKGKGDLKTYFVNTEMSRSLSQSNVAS
Sequence of Adenylate cyclase type 5 (O95622 whole entry): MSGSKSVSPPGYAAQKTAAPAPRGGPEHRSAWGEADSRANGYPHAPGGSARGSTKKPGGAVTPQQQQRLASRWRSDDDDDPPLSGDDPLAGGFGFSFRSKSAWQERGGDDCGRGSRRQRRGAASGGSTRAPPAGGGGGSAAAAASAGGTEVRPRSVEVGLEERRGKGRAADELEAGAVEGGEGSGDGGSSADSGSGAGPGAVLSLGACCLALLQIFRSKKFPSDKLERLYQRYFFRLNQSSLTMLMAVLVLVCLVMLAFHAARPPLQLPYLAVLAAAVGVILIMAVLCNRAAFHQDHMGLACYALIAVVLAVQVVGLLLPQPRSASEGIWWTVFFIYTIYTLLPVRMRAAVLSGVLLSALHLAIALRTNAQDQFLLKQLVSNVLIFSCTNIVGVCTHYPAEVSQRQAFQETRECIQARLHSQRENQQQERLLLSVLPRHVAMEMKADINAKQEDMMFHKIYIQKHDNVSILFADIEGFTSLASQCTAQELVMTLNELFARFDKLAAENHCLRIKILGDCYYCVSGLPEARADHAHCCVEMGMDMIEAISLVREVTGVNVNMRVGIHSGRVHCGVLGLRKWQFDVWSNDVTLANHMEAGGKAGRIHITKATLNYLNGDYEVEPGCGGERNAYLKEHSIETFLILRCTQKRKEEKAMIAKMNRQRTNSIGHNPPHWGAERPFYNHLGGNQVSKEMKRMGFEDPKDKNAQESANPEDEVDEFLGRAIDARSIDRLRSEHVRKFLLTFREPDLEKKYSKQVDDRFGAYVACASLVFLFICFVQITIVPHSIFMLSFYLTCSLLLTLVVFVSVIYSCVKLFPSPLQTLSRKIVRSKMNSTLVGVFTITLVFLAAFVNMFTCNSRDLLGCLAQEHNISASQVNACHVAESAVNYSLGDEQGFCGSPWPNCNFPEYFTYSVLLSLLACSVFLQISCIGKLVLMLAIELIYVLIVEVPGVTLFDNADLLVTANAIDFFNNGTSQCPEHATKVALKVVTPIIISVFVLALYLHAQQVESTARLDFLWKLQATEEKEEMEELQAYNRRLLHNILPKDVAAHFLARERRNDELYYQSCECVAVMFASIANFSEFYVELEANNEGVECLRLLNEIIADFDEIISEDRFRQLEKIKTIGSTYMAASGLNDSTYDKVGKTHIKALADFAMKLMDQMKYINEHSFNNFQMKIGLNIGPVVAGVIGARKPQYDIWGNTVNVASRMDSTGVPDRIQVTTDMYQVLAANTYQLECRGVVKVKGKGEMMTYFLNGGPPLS
Sequence of Adenylate cyclase type 8 (P40145 whole entry): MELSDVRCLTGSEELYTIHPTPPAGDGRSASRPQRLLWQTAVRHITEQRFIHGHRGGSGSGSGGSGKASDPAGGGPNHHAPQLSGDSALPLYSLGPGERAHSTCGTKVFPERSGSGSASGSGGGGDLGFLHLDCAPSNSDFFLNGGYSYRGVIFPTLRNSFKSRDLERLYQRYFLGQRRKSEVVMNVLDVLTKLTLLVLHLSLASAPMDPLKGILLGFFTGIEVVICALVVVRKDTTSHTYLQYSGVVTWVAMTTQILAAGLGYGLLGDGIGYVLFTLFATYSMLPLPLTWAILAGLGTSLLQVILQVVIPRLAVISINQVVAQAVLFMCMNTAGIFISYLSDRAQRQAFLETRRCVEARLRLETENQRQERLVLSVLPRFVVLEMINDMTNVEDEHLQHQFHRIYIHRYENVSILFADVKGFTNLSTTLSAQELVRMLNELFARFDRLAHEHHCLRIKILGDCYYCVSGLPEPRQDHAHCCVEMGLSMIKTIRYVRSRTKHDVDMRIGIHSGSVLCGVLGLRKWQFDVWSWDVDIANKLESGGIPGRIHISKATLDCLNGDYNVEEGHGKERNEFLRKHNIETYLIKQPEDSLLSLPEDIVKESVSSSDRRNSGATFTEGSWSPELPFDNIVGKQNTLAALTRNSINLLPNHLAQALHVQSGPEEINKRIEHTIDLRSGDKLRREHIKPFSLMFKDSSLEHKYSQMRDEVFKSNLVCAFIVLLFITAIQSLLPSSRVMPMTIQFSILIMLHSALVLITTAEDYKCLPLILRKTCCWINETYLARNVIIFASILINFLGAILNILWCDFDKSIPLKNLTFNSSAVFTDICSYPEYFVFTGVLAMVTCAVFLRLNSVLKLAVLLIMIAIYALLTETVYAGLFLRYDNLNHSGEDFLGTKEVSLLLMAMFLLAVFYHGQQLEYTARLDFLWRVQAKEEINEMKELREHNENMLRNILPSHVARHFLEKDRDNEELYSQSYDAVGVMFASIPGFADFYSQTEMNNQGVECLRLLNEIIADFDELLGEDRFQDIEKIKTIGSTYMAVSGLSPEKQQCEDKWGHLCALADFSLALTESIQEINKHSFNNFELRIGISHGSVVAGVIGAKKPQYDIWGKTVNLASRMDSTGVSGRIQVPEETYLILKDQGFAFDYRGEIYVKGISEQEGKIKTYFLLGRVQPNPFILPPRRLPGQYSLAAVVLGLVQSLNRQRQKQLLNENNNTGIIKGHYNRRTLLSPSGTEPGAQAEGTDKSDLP
Sequence of Adenylate cyclase type 1 (Q08828 whole entry): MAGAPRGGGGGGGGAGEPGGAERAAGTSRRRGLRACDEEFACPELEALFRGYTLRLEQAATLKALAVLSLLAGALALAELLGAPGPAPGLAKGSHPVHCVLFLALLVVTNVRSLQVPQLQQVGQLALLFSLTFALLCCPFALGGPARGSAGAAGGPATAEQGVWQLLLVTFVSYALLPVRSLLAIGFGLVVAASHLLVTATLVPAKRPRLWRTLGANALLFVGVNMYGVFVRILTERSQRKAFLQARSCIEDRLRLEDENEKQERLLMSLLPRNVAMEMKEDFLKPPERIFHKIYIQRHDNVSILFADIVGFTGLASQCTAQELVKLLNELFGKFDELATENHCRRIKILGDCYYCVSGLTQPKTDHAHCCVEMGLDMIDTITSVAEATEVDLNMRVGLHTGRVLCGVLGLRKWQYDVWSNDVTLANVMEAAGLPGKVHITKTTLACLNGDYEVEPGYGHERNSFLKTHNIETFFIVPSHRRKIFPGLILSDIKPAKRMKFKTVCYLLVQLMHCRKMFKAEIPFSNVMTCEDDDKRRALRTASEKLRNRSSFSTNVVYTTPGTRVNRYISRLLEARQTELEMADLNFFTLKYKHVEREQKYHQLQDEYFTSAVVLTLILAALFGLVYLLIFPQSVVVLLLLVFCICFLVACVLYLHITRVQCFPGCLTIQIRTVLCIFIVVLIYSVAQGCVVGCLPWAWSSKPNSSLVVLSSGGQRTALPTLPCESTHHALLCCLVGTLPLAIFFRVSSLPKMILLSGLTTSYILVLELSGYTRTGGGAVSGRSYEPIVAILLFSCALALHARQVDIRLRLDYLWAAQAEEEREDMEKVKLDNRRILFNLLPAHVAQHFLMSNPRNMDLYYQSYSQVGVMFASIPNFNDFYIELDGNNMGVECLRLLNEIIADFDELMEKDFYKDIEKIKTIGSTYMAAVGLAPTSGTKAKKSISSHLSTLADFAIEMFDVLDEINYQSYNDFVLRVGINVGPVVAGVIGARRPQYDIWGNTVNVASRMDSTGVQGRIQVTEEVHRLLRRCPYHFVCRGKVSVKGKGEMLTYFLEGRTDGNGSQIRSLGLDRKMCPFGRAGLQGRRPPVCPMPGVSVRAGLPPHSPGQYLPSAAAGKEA

EC50 (Adenylate cyclase type 2 [1]): 90 nM
Activity (Adenylate cyclase type 1): Not Active
Activity (Adenylate cyclase type 5): Not Active
Activity (Adenylate cyclase type 8): Not Active
Activity (Adenylate cyclase type 2 [2]): 87.8%
Ratio EC50 (Adenylate cyclase type 2 [3]): 160
Activity (Adenylate cyclase type 2 [4]): 37.1%
Structure (SMILES): Cc1ccc([C@H]2OC3(C(=O)c4ccc(Br)cc4C3=O)[C@H]3C(=O)N(c4ccccc4Cl)C(=O)[C@@H]23)cc1 (some centres not stated)
